In patent publication US8198311B2, “Modulators of glucocorticoid receptor, AP-1, and/or NF-κB activity and use thereof” (Bristol-Myers Squibb Company, priority 2006, dated 2012):

Legend:
[1] = biological target: T1, human full-length glucocorticoid receptor (Homo sapiens, UniProt P04150); test: Glucocorticoid Receptor Binding Assay (II), fluorescence polarization competitor kit (Fluormone GS1); conditions: cell lysate with recombinant human full-length GR
T1 construct: recombinantly expressed human full-length glucocorticoid receptor; purchased PanVera Co., Madison, Wis; P2816
T1 sequence (P04150 1-777): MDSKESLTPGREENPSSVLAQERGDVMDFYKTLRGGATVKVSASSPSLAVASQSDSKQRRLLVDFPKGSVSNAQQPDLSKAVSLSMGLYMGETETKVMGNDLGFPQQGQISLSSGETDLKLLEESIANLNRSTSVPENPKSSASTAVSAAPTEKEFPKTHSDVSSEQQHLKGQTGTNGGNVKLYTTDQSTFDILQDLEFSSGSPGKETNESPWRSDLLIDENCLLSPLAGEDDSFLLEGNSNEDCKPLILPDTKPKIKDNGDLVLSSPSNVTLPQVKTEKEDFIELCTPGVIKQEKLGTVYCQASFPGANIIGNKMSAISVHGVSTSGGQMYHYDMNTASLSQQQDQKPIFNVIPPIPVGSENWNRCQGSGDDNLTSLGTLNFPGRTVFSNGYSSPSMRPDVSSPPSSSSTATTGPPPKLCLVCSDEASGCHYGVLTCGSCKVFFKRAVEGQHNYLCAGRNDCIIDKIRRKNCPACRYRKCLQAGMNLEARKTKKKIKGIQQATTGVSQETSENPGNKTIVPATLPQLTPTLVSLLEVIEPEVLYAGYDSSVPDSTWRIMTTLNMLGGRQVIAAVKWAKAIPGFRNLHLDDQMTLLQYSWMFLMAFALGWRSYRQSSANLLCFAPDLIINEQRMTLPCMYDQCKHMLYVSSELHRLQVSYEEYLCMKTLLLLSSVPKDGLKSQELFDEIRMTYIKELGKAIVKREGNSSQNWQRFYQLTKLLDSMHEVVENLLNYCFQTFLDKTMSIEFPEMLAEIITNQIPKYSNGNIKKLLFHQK
Method in brief: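 Lysate with recombinant human full-length GR competed against 1 nM Fluormone GS1 tracer. Fluorescence polarization was read after 1 h at room temperature, with compounds tested from 2.4 nM to 40 microMolar.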

[2] = test system: AP-1 induced transcriptional activity; test: Cellular Transrepressional Assay (AP-1 luciferase reporter in A549 cells, PMA-activated); format: cell-based; conditions: Homo sapiens, A549, 7 h, pAP-1-Luc, 10 ng/ml PMA, read-out: AP-1 (EC50, nM) (Cellular Transrepression Assay)
Method in brief: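 A549 cells stably carrying a 7×AP-1-luciferase reporter, stimulated with 10 ng/ml PMA with or without compound (0.1 nM-40 μM) for 7 h. Luciferase luminescence read 10 min after reagent addition; repression is percentage decrease of PMA-alone signal, EC50 by curve fitting.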

[3] = biological target: T2, human glucocorticoid receptor (Homo sapiens, UniProt P04150); test: Glucocorticoid Receptor Binding Assay (I), fluorescence polarization competitor kit (Fluormone GS Red); conditions: purified human recombinant full-length GR
T2 construct: purified human recombinant full-length glucocorticoid receptor (2 nM); purchased Invitrogen Part # 2893
T2 sequence (P04150 1-777): T1 sequence (P04150 1-777)
Method in brief: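 Fluorescence polarization competition: full-length recombinant human GR (2 nM) incubated with 1 nM Fluormone GS Red plus test compound (8.5E-05 to 5 μM) for 2 h at room temperature in the dark before FP read-out.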

Structure (SMILES)	Ki [1]	EC50 [2]	Ki [3]
CC(C)CC(c1ccc2c(cnn2-c2ccc(F)cc2)c1)C(C)(C)CNC(=O)N(C)C(C)(C)C (stereo not drawn) [Example 31, 1-tert-butyl-3-(3-(1-(4-fluorophenyl)-1H-indazol-5-yl)-2,2,5-trimethylhexyl)-1-methylurea]	19 nM	394 nM	28 nM
CC(C)CC(c1ccc2c(cnn2-c2ccc(F)cc2)c1)C(C)(C)CNC(=O)NC(C)(C)CN1CCCCC1 (stereo not drawn) [Example 32, 1-(3-(1-(4-fluorophenyl)-1H-indazol-5-yl)-2,2,5-trimethylhexyl)-3-(2-methyl-1-(piperidin-1-yl)propan-2-yl)urea]	452 nM	> 10000 nM	73 nM
CC(C)CC(c1ccc2c(cnn2-c2ccc(F)cc2)c1)C(C)(C)CNC(=O)NC(C)C (stereo not drawn) [Example 34, 1-(3-(1-(4-fluorophenyl)-1H-indazol-5-yl)-2,2,5-trimethylhexyl)-3-isopropylurea]	7.1 nM	129 nM	1.1 nM

Results, then the compound that gave them:

Ki [1]	EC50 [2]	Ki [3]	Structure (SMILES)
24 nM	234 nM	41 nM	CC(C)CC(c1ccc2c(cnn2-c2ccc(F)cc2)c1)C(C)(C)CNC(=O)OCC(F)(F)F (stereo not drawn) [Example 60, 2,2,2-trifluoroethyl 3-(1-(4-fluorophenyl)-1H-indazol-5-yl)-2,2,5-trimethylhexylcarbamate]
34 nM	> 10000 nM	37 nM	CC(C)(C(c1ccccc1)c1ccc2c(cnn2-c2ccc(F)cc2)c1)C(O)C1CC1 (stereo not drawn) [Example 122, 1-cyclopropyl-3-(1-(4-fluorophenyl)-1H-indazol-5-yl)-2,2-dimethyl-3-phenylpropan-1-ol]
